From patent publication US4202975A, “Isoxazolo[3,4-d]pyrimidines” (Takeda Chemical Industries, Ltd., priority 1976, dated 1980)

Experiments:
Type in all cases: in vivo
[1] = system: phenylquinone-writhing; assay: Analgesic action (mouse, phenylquinone-writhing test); details: 10 mice
Text: |(mouse, phenylquinone-writhing test)

[2] = system: Carrageenin edema; assay: Antiinflammatory action (rat, Carrageenin edema); details: 6 rats
Text: Antiinflammatory action
(Rat, Carrageenin edema)

[3] = system: Mouse; assay: Acute toxicity (mouse, oral, mortality); details: 500 mg/kg oral; observed for 7 days after dosing, mortality after 8 days
Text: The acute toxicity data for some representative isoxazolo[3,4-d]pyrimidines(I) are given below in Table 3.
(Mouse, observed for 7 days after dosing, mortality

[4] = 25 mg/kg oral, first experiment, control 12.7 ± 2.5
[5] = 25 mg/kg oral, second experiment, control 17.3 ± 2.6
[6] = 50 mg/kg oral, first experiment, control 12.7 ± 2.5
[7] = 50 mg/kg oral, second experiment, control 17.3 ± 2.6
[8] = 12.5 mg/kg oral, first experiment, control 0.543 ± 0.032
[9] = 25 mg/kg oral, first experiment, control 0.543 ± 0.032
[10] = 12.5 mg/kg oral, second experiment, control 17.3 ± 2.6
[11] = 6.25 mg/kg oral, second experiment, control 0.512 ± 0.017
[12] = 12.5 mg/kg oral, second experiment, control 0.512 ± 0.017
[13] = 25 mg/kg oral, third experiment, control 13.7 ± 1.2

| SMILES | % Suppression [1, 4] [%] | Average number of writhings & standard error [1, 4] | % Suppression [1, 5] [%] | Average number of writhings & standard error [1, 5] | % Suppression [1, 6] [%] | Average number of writhings & standard error [1, 6] | Mortality [3] | further results |
| --- | --- | --- | --- | --- | --- | --- | --- | --- |
| COc1ccc2c3c1O[C@H]1[C@@H](O)C=C[C@H]4[C@@H](C2)N(C)CC[C@@]341 [Codeine phosphate, reference compound] | 72.4 | 3.5 ± 1.2 |  |  |  |  |  |  |
| Cc1onc2c1c(=O)n(C)c(=O)n2C [Ia, 3,5,7-Trimethyl-5H,7H-isoxazolo[3,4-d]pyrimidine-4,6-dione] | 54.3 | 5.8 ± 2.4 | 67.1 | 5.7 ± 1.5 | 55.9 | 5.6 ± 2.3 | 1/5 | % Suppression [1, 7]: 93.1%; Average number of writhings & standard error [1, 7]: 1.2 ± 0.5; % Suppression [2, 8]: 21.4%; Volume of edema & standard error [2, 8]: 0.427 ± 0.030 mL; % Suppression [2, 9]: 35.5%; Volume of edema & standard error [2, 9]: 0.350 ± 0.061 mL |
| Cn1c(=O)c2conc2n(C)c1=O [Ib, 5,7-Dimethyl-5H,7H-isoxazolo[3,4-d]pyrimidine-4,6-dione] | 63.8 | 4.6 ± 1.2 | 77.5 | 3.9 ± 1.0 | 92.1 | 1.0 ± 0.8 | 1/5 | % Suppression [1, 10]: 54.9%; Average number of writhings & standard error [1, 10]: 7.8 ± 1.9; % Suppression [2, 11]: 21.9%; Volume of edema & standard error [2, 11]: 0.400 ± 0.037 mL; % Suppression [2, 12]: 32.0%; Volume of edema & standard error [2, 12]: 0.348 ± 0.014 mL |
| CCn1c(=O)c2conc2n(CC)c1=O [Ic] |  |  |  |  |  |  |  | % Suppression [1, 13]: 47.4%; Average number of writhings & standard error [1, 13]: 7.2 ± 1.5 |
